Data as given in article PMC7822816, “Halo-fluorescein for photodynamic bacteria inactivation in extremely acidic conditions” (Nature Communications, 2021).
Where “and” joins values, the source holds several entries; their conditions need not be identical. Equal values may be shown once.

Legend:
H. pylori = assay: IC50 of photodynamic inactivation, H. pylori; conditions: Helicobacter pylori, 10 min, pH 2.5, read-out: IC50 (H. pylori)
Method: (§1) For quantitative comparison, the half-maximal inhibitory concentrations (IC50) of TIF for these bacterial were measured (Supplementary Table 6, and Supplementary Figs. 51–58).
Bacterial strains are listed in Supplementary Table 6. S. aureus and MRSA, and C. albicans were provided by West China Hospital of Stomatology, Sichuan University. A. acidoterrestris, S. enterica, H. pylori, L. plantarum, and E. coli were provided by College of Life Science, Sichuan University. The bacteria were cultured overnight in a constant temperature oscillator (37 °C, 170 r/min, the specific culture conditions were listed in Supplementary Table 6). Suspensions of bacteria (100 μL, diluted 1000-folds, PBS) were added with different concentration PSs (final volume of 1 mL), and irradiated with LED (λ = 520 nm, 35 mW/cm^2) for 10 min. Then, the treated bacteria liquid (100 μL) were added into the culture medium and cultured in a 24-well plate. The OD600 of bacteria was measured to obtain the bacteria CFUs, and the survival rate were calculated as C/C0 × 100%, where C is the CFU of sample which treated with PSs and light, and C0 is the blank without any treatment. All photodynamic sterilizations were carried out in at least three replicates.
Irradiation: 520 nm green LED (6 mW/cm2), 10 min. Error bars = Standard Deviation (n=3).
Irradiation: 520 nm green LED (6 mW/cm2), 10 min.

MRSA = assay: IC50 / growth inhibition of photodynamic inactivation, MRSA; assay type: cell-based, methicillin-resistant S. aureus
[1] = Relative singlet oxygen quantum yield (1O2 phosphorescence, Rose Bengal standard); assay type: physicochemical; design: key: relative to Rose Bengal standard (ΦΔ = 0.75); conditions: pH = 10 media; relative, RB as the standard
Method: To permit the open-form structure of all fluorescein derivatives, all the measurements were carried out in pH = 10 media.
The singlet oxygen quantum yields (ΦΔ) of all fluorescein-based PSs were evaluated with Rose Bengal as the standard (ΦΔ = 0.75):1 ΦΔ=AsAbsorption/As(Emission)×ARB(Emission)/ARB(Absorption)×0.75 Here, the area of absorption (RB and PSs) was collected with an integrating sphere (λex = 510 nm), while the area of emission was obtained from the characterized 1270 nm ^1O2 phosphorescence emission. For collection of such emission, CH3CN and D2O mixed solvent (v (D2O): v (CH3CN) = 1:15, pH = 9.0, adjusted with 0.001 M NaOH) was used, since H2O can severely quench the singlet oxygen luminescence. For all the measurements, the concentrations of the PSs were set at 10 μM.
S6.3 Relative singlet oxygen quantum yield
The singlet O2 quantum yield of photosensitizers were measured by Fluolog-3 spectrofluorometer with an integration sphere (IS80, Labsphere) and NIR detector (Hamamatsu H-10330) in this work.
For better collection of the characterized singlet oxygen phosphorescence emission (1275 nm), CH3CN and D2O mixed solvent was used (H2O can severely quench the singlet oxygen luminescence). The 10 mM stock solutions in CH3CN and D2O mixed solvent (VCH3CN:VD2O = 15:1) were first prepared. The stock solutions were diluted to 10 μM, and the final volume was 2 mL. In addition, the CH3CN and D2O mixed solvent as blank was also prepared.
1. Turn on the instrument and the start software, the light source is xenon lamp.
2. From the experiment menu, selected spectra, emission. The 1O2 emission phosphorescence spectra are first measured.
3. The parameters setting are listed: a. Excitation wavelength: 510 nm

[2] = test system: bacteria in passionfruit lemon juice; assay: Photodynamic sterilization of acidic juices
Method: The prepared juice samples were divided into two groups: one for light treatment of 10–20 min (xenon lamp with 420 nm long-pass filter, 100 mW/cm^2), and another without (stored at 4 °C). […] For other juices (pH 3.6–4.6), similar bacteria inhibition results were obtained (Supplementary Figs. 63–66). Besides, the greatly extended shelf life was also applicable to strawberry juice (Supplementary Fig. 67) and tomato juice (Supplementary Fig. 68). […] It should be noted that the TIF-based method was efficient in treatment of acid- and heat-resistant A. acidoterrestris (Fig. 6), the main cause of fruit juice spoilage and deterioration (even after pasteurization[41]).
Fresh juices were prepared and divided into two groups (each to a culture dish of 60 mm id), and then TIF was added with final concentration of 10 μM. One group was subjected to light processing (xenon lamp, 300 W, 420 nm optical filter, beam spot size 60 mm) for 10–20 min, and another without. All samples were sub-packed into the headspace bottle and stored in 4 °C for different time. To determine the bacteria colonies, 1 mL juice samples were mixed with plate count agar and culture at 37 °C for 48 h (GB 4789.2-2016). Afterward, the total number of bacteria colonies were counted.

L. plantarum = assay: IC50 of photodynamic inactivation, L. plantarum; conditions: Lactiplantibacillus plantarum, 10 min, pH 2.5, read-out: IC50 (L. plantarum)
Method: as §1
S. aureus and MRSA, and C. albicans were provided by West China Hospital of Stomatology, Sichuan University. A. acidoterrestris, S. enterica, H. pylori, L. plantarum, and E. coli were provided by College of Life Science, Sichuan University. The bacteria were cultured overnight in a constant temperature oscillator (37 °C, 170 r/min, the specific culture conditions were listed in Supplementary Table 6). Suspensions of bacteria (100 μL, diluted 1000-folds, PBS) were added with different concentration PSs (final volume of 1 mL), and irradiated with LED (λ = 520 nm, 35 mW/cm^2) for 10 min. Then, the treated bacteria liquid (100 μL) were added into the culture medium and cultured in a 24-well plate. The OD600 of bacteria was measured to obtain the bacteria CFUs, and the survival rate were calculated as C/C0 × 100%, where C is the CFU of sample which treated with PSs and light, and C0 is the blank without any treatment. All photodynamic sterilizations were carried out in at least three replicates.

A. acidoterrestris = assay: IC50 of photodynamic inactivation, A. acidoterrestris; assay type: cell-based; conditions: Alicyclobacillus acidoterrestris, 10 min; pH 2.5; LED 520 nm, 35 mW/cm^2, 10 min
[3] = assay type: physicochemical; conditions: buffer, 5 min, pH 3
Method: Next, the influence of the added TIF to jucies after photodynamic sterilization was further investigated from the following two aspects. First, like many other dyes, TIF experienced photo-bleaching upon photo irradiation. As shown in Supplementary Fig. 69, in the presence of green LED irradiation (520 nm, 50 mW/cm^2), the absorbance of TIF decreased rapidly in 5 min (with ~22% remaining). In other words, most of the added TIF in juices is expected to lose the ability of ROS generation after the first photodynamic sterilization process. Second, the ingredients inside the juices before and after TIF-involved photodynamic sterilization were evaluated. Here, the investigations were concentrated on antioxidants due to the high activity of ROS[42]. Three representative antioxidants, namely, ascorbic acid (vitamin C), phenolic compounds, and flavonoid, were chosen. […] Besides, the color, flavor, and texture of the juices were roughly evaluated through visual observation and smelling (method supplied in the Chinese National Standard GB/T 31121-2014), no appreciable changes were observed before and after TIF-based photodynamic sterilization. […]
(1) The photo-bleaching of TIF. […] As can be seen from Figure R3 below, in the presence of green LED irradiation (520 nm, 50 mW/cm2), the absorbance of TIF decreased rapidly in 5 min (with ~22% remaining). […]

Work on `O=C(O)c1ccccc1-c1c2cc(I)c(=O)c(I)c-2oc2c(I)c(O)c(I)cc12` [TIF, 2′,4′,5′,7′-tetraiodofluorescein] yielded an IC50 (H. pylori) of 180 nM, an IC50 (MRSA; Staphylococcus aureus, 10 min, pH 2.5, LED 520 nm, 35 mW/cm^2, 10 min) of 340 nM and an Inhibition ratio (MRSA; dose 2.0 μM, 3 V/3 W, 6 mW/cm2, 10 min) of over 97.1%. For the same compound, the “singlet oxygen quantum yield (ΦΔ)” value [1] was 0.64, the “shelf life of juice after photo-treatment” value ([2]; passionfruit lemon juice pH 2.8, 10 μM, xenon lamp 420 nm long-pass 100 mW/cm^2, 10 min, stored at 4 °C) was ~ 15 days and 15 days and the “sterilization performance compared with standard methods” value ([2]; passionfruit lemon juice, versus pasteurization and O3 treatment) was “comparable sterilization performance as pasteurization”. The IC50 (L. plantarum) was 10 nM, the IC50 (A. acidoterrestris) was 580 nM and the “absorbance remaining after photo-bleaching” value [3] was ~ 22%.
